According to US20250222065A1, “CYCLIC POLYPEPTIDE FOR THE TREATMENT OF PHA TYPE 1B” (priority 2015, published 2025):

How the values were obtained:
[1] = test system: WT αβγ-hENaC, WT δβγ-hENaC or mutant hENaC; test: Amiloride block of whole-cell sodium current in transfected HEK-293 cells; type: cell-based, human; details: amiloride 10 μM, HEK-293 whole-cell sodium current
Experimental: Concentration-response curves were plotted, and EC50 values and Hill coefficients were determined using Microcal Origin 7.0. […] Finally, amiloride was added to enable estimation of the peptide-induced increase in amiloride-sensitive Na+ current. […] Amiloride was used at 10 μM for WT αβγ-hENaC, WT δβγ-hENaC or mutant hENaC; these concentrations yielded greater than 95% hENaC inhibition. Only cells with clear amiloride response were included in data analysis.

αβγV543fs-hENaC = test: Whole cell patch clamp, HEK-293 cells expressing PHA type IB frameshift mutant αβγV543fs-hENaC; type: cell-based, human; details: HEK-293, peptide concentration 220 nM, mean ± SE, n = 5; no peptide: loss-of-function; Table 2
Experimental: The ENaC-activating properties of cyclic peptides are tested electrophysiologically in vitro using whole cell and […] patch clamp techniques Hazemi et al, 2010; Tzotzos et al, 2013; Shabbir et al, 2013). A whole call patch clamp assay is used to measure the induced amiloride-sensitive Na+ current, calculate concentration-response curves and thus estimate the potency measured as effective concentration at half maximum response (EC50), for cyclic peptides.
In addition, mutant delta ENaC subunits were also constructed by site-directed mutagenesis, containing homologous mutations to those observed in conserved positions in the other three ENaC subunits.
Point mutations were introduced into cDNA encoding alpha, beta, gamma and delta ENaC using a commercially available site-directed mutagenesis kit (QuikChange Lightning Site-Directed Mutagenesis Kit; Agilent Technologies). […]
(§1) Whole cell currents were recorded as previously described (Shabbir et al, 2013).
(§2) Data represent the mean ±S.E. unless otherwise stated; experiments were performed on three to seven batches of independently transfected cells in the HEK-293 heterologous expression system. Statistical significance between different groups was determined using an unpaired, two-tailed Student's t test using GraphPad Prism version 3.02 (GraphPad Software, San Diego). […]

[2] = test system: PHA type IB mutant loss-of-function hENaC; test: Whole cell patch clamp, HEK-293 cells expressing PHA type IB mutant hENaCs (overall conclusions); type: cell-based, human; details: whole cell electrophysiological assay, versus absence of peptide
Experimental: In addition, mutant delta ENaC subunits were also constructed by site-directed mutagenesis, containing homologous mutations to those observed in conserved positions in the other three ENaC subunits. […]
as §1
Concentration-response curves were plotted, and EC50 values and Hill coefficients were determined using Microcal Origin 7.0. […]
After GOhm-seal (GΩ-seal) formation, and an equilibration period of 5 min, sodium current was recorded at Eh from —80 to +80 mV in 20 mV increments held for 1 min at each Eh.
as §2

αβG37Sγ-hENaC = αβG37Sγ-hENaC (human, UniProt P37088 1-669; P51168 1-640; P51170 1-649); test: cell-based or functional assay
αQ101Kβγ-hENaC = αQ101Kβγ-hENaC (human, UniProt P37088 1-669; P51168 1-640; P51170 1-649); test: cell-based or functional assay
[3] = target: αβγV543fs-hENaC (human), P37088; test: cell-based or functional assay

N=C(N)NC(=O)c1nc(Cl)c(N)nc1N [Amiloride, amiloride]
hENaC inhibition [1]: greater than 95%

Cyclo(4-aminobutanoic acid-GQRETPEGAEAKPWYD) (not fully specified; cyclized via 4-aminobutanoic acid) [AP318]
Inward current measured (amiloride-sensitive current) (αβγV543fs-hENaC): 177.7 ± 6.5 pA
Amiloride-sensitive sodium ion current through PHA-1B mutants in the presence of peptide [2]: significantly increased

B1: AP318, Cyclo(4-aminobutanoic acid-GQRETPEGAEAKPWYD) (peptide)
peptide: GQRETPEGAEAKPWYD
modifications: N-terminal 4-aminobutanoic acid (GABA); cyclic: amide bond between the amino group of N-terminal 4-aminobutanoic acid and the side chain carboxyl group of the C-terminal aspartic acid
Inward amiloride-sensitive current, whole cell patch clamp, HEK-293, peptide concentration 220 nM (αβG37Sγ-hENaC): 192 pA
Inward amiloride-sensitive current, whole cell patch clamp, HEK-293, peptide concentration 220 nM (αQ101Kβγ-hENaC): 177 pA

B2: AP318, Cyclo(4-aminobutanoic acid-…) (peptide)
peptide: GQRETPEGAEAKPWYD
modifications: here or on the partner: N-terminal 4-aminobutanoic acid (GABA); cyclic: amide bond between the amino group of N-terminal 4-aminobutanoic acid and the side chain carboxyl group of the C-terminal aspartic acid
Inward amiloride-sensitive current, whole cell patch clamp, HEK-293, peptide concentration 220 nM [3]: 178 pA
